Assay results published in ChEMBL document CHEMBL2074081, “Functional characteristics and membrane localization of rat multispecific organic cation transporters, OCT1 and OCT2, mediating tubular secretion of cationic drugs” (J Pharmacol Exp Ther, 1998).

T1: Solute carrier family 22 member 2 (Rattus norvegicus, UniProt Q9R0W2)
T1 sequence (Q9R0W2 whole entry): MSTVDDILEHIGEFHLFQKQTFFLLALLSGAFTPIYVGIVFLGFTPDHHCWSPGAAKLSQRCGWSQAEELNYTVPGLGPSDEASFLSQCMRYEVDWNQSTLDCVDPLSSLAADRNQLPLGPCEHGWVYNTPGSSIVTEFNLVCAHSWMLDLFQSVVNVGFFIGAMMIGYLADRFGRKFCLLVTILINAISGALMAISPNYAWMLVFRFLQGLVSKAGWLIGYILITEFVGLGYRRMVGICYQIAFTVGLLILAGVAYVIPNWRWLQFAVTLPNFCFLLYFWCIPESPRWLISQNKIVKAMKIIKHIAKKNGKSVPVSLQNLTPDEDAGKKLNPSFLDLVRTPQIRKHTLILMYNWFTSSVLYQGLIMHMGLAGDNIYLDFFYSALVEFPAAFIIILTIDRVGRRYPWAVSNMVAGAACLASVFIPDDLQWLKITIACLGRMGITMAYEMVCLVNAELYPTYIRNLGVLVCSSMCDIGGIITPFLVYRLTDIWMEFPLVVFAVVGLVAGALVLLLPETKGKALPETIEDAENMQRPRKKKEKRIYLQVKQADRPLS

T2: Solute carrier family 22 member 1 (Rattus norvegicus, UniProt Q63089)
T2 sequence (Q63089 whole entry): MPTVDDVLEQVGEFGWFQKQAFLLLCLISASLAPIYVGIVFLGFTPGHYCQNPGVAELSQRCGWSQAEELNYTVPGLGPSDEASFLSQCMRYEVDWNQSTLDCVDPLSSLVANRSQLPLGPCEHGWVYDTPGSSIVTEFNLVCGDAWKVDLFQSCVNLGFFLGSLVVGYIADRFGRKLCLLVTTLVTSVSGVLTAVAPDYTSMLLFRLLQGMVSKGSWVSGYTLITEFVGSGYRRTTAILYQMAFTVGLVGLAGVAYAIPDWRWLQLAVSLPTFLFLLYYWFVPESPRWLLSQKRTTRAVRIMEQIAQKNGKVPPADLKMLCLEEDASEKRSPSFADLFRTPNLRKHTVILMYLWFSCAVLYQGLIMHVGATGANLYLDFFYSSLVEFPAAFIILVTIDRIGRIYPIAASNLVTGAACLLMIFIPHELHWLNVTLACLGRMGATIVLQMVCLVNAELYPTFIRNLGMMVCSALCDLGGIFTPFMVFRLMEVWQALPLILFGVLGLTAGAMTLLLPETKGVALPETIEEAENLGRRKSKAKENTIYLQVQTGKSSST

B1: Solute carrier family 22 member 2 (Rattus norvegicus) (protein)
chain: MSTVDDILEHIGEFHLFQKQTFFLLALLSGAFTPIYVGIVFLGFTPDHHCWSPGAAKLSQRCGWSQAEELNYTVPGLGPSDEASFLSQCMRYEVDWNQSTLDCVDPLSSLAADRNQLPLGPCEHGWVYNTPGSSIVTEFNLVCAHSWMLDLFQSVVNVGFFIGAMMIGYLADRFGRKFCLLVTILINAISGALMAISPNYAWMLVFRFLQGLVSKAGWLIGYILITEFVGLGYRRMVGICYQIAFTVGLLILAGVAYVIPNWRWLQFAVTLPNFCFLLYFWCIPESPRWLISQNKIVKAMKIIKHIAKKNGKSVPVSLQNLTPDEDAGKKLNPSFLDLVRTPQIRKHTLILMYNWFTSSVLYQGLIMHMGLAGDNIYLDFFYSALVEFPAAFIIILTIDRVGRRYPWAVSNMVAGAACLASVFIPDDLQWLKITIACLGRMGITMAYEMVCLVNAELYPTYIRNLGVLVCSSMCDIGGIITPFLVYRLTDIWMEFPLVVFAVVGLVAGALVLLLPETKGKALPETIEDAENMQRPRKKKEKRIYLQVKQADRPLS
B2: Solute carrier family 22 member 1 (Rattus norvegicus) (protein)
chain: MPTVDDVLEQVGEFGWFQKQAFLLLCLISASLAPIYVGIVFLGFTPGHYCQNPGVAELSQRCGWSQAEELNYTVPGLGPSDEASFLSQCMRYEVDWNQSTLDCVDPLSSLVANRSQLPLGPCEHGWVYDTPGSSIVTEFNLVCGDAWKVDLFQSCVNLGFFLGSLVVGYIADRFGRKLCLLVTTLVTSVSGVLTAVAPDYTSMLLFRLLQGMVSKGSWVSGYTLITEFVGSGYRRTTAILYQMAFTVGLVGLAGVAYAIPDWRWLQLAVSLPTFLFLLYYWFVPESPRWLLSQKRTTRAVRIMEQIAQKNGKVPPADLKMLCLEEDASEKRSPSFADLFRTPNLRKHTVILMYLWFSCAVLYQGLIMHVGATGANLYLDFFYSSLVEFPAAFIILVTIDRIGRIYPIAASNLVTGAACLLMIFIPHELHWLNVTLACLGRMGATIVLQMVCLVNAELYPTFIRNLGMMVCSALCDLGGIFTPFMVFRLMEVWQALPLILFGVLGLTAGAMTLLLPETKGVALPETIEEAENLGRRKSKAKENTIYLQVQTGKSSST

Legend:
[1] = target: T1, Solute carrier family 22 member 2; experiment: TP_TRANSPORTER: inhibition of TEA uptake (basolateral to cell) in OCT2-expressing MDCK cells; type: functional, cell-based
[2] = target: T2, Solute carrier family 22 member 1; experiment: TP_TRANSPORTER: inhibition of TEA uptake (basolateral to cell) in OCT1-expressing MDCK cells; type: functional, cell-based
[3] = target: T1, Solute carrier family 22 member 2; experiment: TP_TRANSPORTER: inhibition of TEA uptake (apical to cell) in OCT2-expressing MDCK cells
[4] = substrate: CC[N+](CC)(CC)CC; experiment: cells, lysate or membranes named

Molecule | Ki [1] | Ki [2] | Ki [3] | Km [4]
CN1CCC[C@H]1c1cccnc1 [NICOTINE] | 50.5 µM | 64.3 µM |  | 
CN/C(=N/CCSCc1nc[nH]c1C)NC#N [CIMETIDINE] | 9.4 µM | 5.7 µM |  | 
N=C(N)N [GUANIDINE] | 714 µM | 724 µM |  | 
C[n+]1ccc(-c2ccccc2)cc1 | 1.8 µM | 0.8 µM |  | 
CC[N+](CC)(CC)CC [TETRYLAMMONIUM] |  | 46.6 µM | 52.2 µM | 
CNC(=O)c1cccnc1 [NICOTINYL METHYLAMIDE] | 403 µM | 669 µM |  | 
C=C[C@H]1C[N@@]2CC[C@H]1C[C@@H]2[C@@H](O)c1ccnc2ccc(OC)cc12 [QUINIDINE] | 19.1 µM |  |  | 
B1 |  |  |  | 45 µM
B2 |  |  |  | 38 µM
